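Following 48 hours of exposure in 96-well plates, responses at five concentrations were used to interpolate endpoints linearly. The concentration for 50% growth inhibition is given as GI50.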 Active and inactive are the calls of the source. Rule as the data show it: active = GI50 up to about 1.1 µM and inactive = higher.
Legend:
Assay in all cases: NCI tumour cell line growth inhibition, 48 h
NCI-H23 = system: NCI-H23
CAKI-1 = system: CAKI-1
SF-268 = system: SF-268
SF-295 = system: SF-295
SK-MEL-28 = system: SK-MEL-28
HCT-116 = system: HCT-116
NCI-H460 = system: NCI-H460
RXF 393 = system: RXF 393
DU-145 = system: DU-145
HT-29 = system: HT-29
LOX IMVI = system: LOX IMVI
U-251 = system: U-251
MDA-MB-231 = system: MDA-MB-231
ACHN = system: ACHN
TK-10 = system: TK-10
SK-MEL-2 = system: SK-MEL-2
A549 = system: A549
UACC-62 = system: UACC-62
MOLT-4 = system: MOLT-4
M14 = system: M14
HCC 2998 = system: HCC 2998
A498 = system: A498
SR = system: SR
HOP-92 = system: HOP-92
IGROV-1 = system: IGROV-1
K562 = system: K562
EKVX = system: EKVX
COLO 205 = system: COLO 205
HOP-62 = system: HOP-62
PC-3 = system: PC-3
CCRF-CEM = system: CCRF-CEM
MDA-N = system: MDA-N
NCI-H226 = system: NCI-H226
SF-539 = system: SF-539
SN12C = system: SN12C
HCT-15 = system: HCT-15
OVCAR-4 = system: OVCAR-4
RPMI-8226 = system: RPMI-8226
786-0 = system: 786-0
SK-OV-3 = system: SK-OV-3
Hs-578T = system: Hs-578T
UO-31 = system: UO-31
MDA-MB-435 = system: MDA-MB-435
UACC-257 = system: UACC-257
T47D = system: T47D
SNB-19 = system: SNB-19
SW-620 = system: SW-620
SK-MEL-5 = system: SK-MEL-5
OVCAR-3 = system: OVCAR-3
MCF7 = system: MCF7
Malme-3M = system: Malme-3M
BT-549 = system: BT-549
HL-60 = system: HL-60
NCI-H522 = system: NCI-H522
OVCAR-5 = system: OVCAR-5
KM12 = system: KM12
OVCAR-8 = system: OVCAR-8
NCI/ADR-RES = system: NCI/ADR-RES
SNB-75 = system: SNB-75

Measured: GI50

COC1(OC)c2occc2C(=N)c2ccc(=O)oc21
> 100 µM: HCT-15
inactive: NCI-H23 > 100 µM | CAKI-1 > 100 µM | SF-268 > 100 µM | SF-295 > 100 µM | SK-MEL-28 > 100 µM | HCT-116 > 100 µM | NCI-H460 > 100 µM | RXF 393 > 100 µM | DU-145 > 100 µM | HT-29 > 100 µM | LOX IMVI > 100 µM | U-251 > 100 µM | MDA-MB-231 > 100 µM | ACHN 92.3 µM | TK-10 > 100 µM | SK-MEL-2 > 100 µM | A549 > 100 µM | UACC-62 > 100 µM | MOLT-4 > 100 µM | M14 > 100 µM | HCC 2998 > 100 µM | A498 > 100 µM | SR 71.8 µM | HOP-92 > 100 µM | IGROV-1 > 100 µM | K562 > 100 µM | EKVX > 100 µM | COLO 205 > 100 µM | HOP-62 > 100 µM | PC-3 > 100 µM | CCRF-CEM 85.9 µM | MDA-N > 100 µM | NCI-H226 > 100 µM | SF-539 41.9 µM | SN12C > 100 µM | OVCAR-4 > 100 µM | RPMI-8226 > 100 µM | 786-0 > 100 µM | SK-OV-3 > 100 µM | Hs-578T > 100 µM | UO-31 > 100 µM | MDA-MB-435 > 100 µM | UACC-257 > 100 µM | T47D > 100 µM | SNB-19 > 100 µM | SW-620 > 100 µM | SK-MEL-5 22.4 µM | OVCAR-3 77.8 µM | MCF7 81.8 µM | Malme-3M 18.2 µM | BT-549 > 100 µM | HL-60 45.8 µM | NCI-H522 > 100 µM | OVCAR-5 > 100 µM

COc1ccc(C2CC3(c4ccccc4)ON=C(c4ccccc4)N3c3ccccc3S2)cc1 (centres undefined)
inactive: NCI-H23 > 100 µM | KM12 > 100 µM | CAKI-1 > 100 µM | SF-268 > 100 µM | SF-295 > 100 µM | SK-MEL-28 > 100 µM | HCT-116 > 100 µM | NCI-H460 > 100 µM | RXF 393 > 100 µM | DU-145 > 100 µM | HT-29 > 100 µM | LOX IMVI > 100 µM | U-251 > 100 µM | MDA-MB-231 > 100 µM | ACHN > 100 µM | TK-10 > 100 µM | OVCAR-8 > 100 µM | A549 > 100 µM | UACC-62 > 100 µM | M14 > 100 µM | HCC 2998 > 100 µM | A498 > 100 µM | IGROV-1 > 100 µM | EKVX > 100 µM | COLO 205 > 100 µM | HOP-62 > 100 µM | PC-3 > 100 µM | CCRF-CEM > 100 µM | MDA-N > 100 µM | NCI/ADR-RES > 100 µM | NCI-H226 > 100 µM | SF-539 > 100 µM | SN12C > 100 µM | OVCAR-4 > 100 µM | RPMI-8226 > 100 µM | SNB-75 > 100 µM | 786-0 > 100 µM | SK-OV-3 > 100 µM | Hs-578T > 100 µM | UO-31 51.2 µM | MDA-MB-435 > 100 µM | UACC-257 > 100 µM | T47D > 100 µM | SW-620 > 100 µM | SK-MEL-5 > 100 µM | OVCAR-3 > 100 µM | MCF7 > 100 µM | Malme-3M > 100 µM | BT-549 > 100 µM | NCI-H522 > 100 µM | OVCAR-5 > 100 µM
> 100 µM: HCT-15

O=C(NNC(=O)c1ccccc1O)c1ccccc1O
active: NCI-H23 0.105 µM | KM12 0.413 µM | CAKI-1 < 0.0237 µM | SF-268 < 0.0233 µM | SF-295 0.189 µM | HCT-116 0.0446 µM | NCI-H460 0.15 µM | RXF 393 0.0514 µM | DU-145 0.0445 µM | LOX IMVI 0.0918 µM | U-251 0.116 µM | ACHN 0.0507 µM | OVCAR-8 0.929 µM | A549 0.0361 µM | UACC-62 0.0495 µM | MOLT-4 0.0385 µM | M14 0.0785 µM | HCC 2998 0.0519 µM | SR 0.0366 µM | IGROV-1 < 0.0255 µM | K562 < 0.0221 µM | COLO 205 0.355 µM | CCRF-CEM 0.0173 µM | MDA-N 0.0247 µM | NCI/ADR-RES 0.0791 µM | NCI-H226 0.873 µM | SF-539 0.033 µM | SN12C 0.0792 µM | OVCAR-4 0.0621 µM | RPMI-8226 0.326 µM | SNB-75 0.0565 µM | 786-0 0.141 µM | SK-OV-3 0.341 µM | Hs-578T 0.0149 µM | UO-31 0.022 µM | MDA-MB-435 < 0.01 µM | UACC-257 0.376 µM | T47D 0.0625 µM | SNB-19 0.0525 µM | SW-620 0.108 µM | SK-MEL-5 0.607 µM | OVCAR-3 0.258 µM | MCF7 0.43 µM | Malme-3M 0.0393 µM | BT-549 0.0426 µM | HL-60 0.0528 µM | NCI-H522 0.112 µM | OVCAR-5 0.5 µM
0.11 µM: HCT-15
inactive: SK-MEL-28 22.4 µM | HT-29 6.71 µM | MDA-MB-231 5.24 µM | TK-10 5.97 µM | A498 19.8 µM | HOP-92 2.25 µM | EKVX 1.17 µM | HOP-62 2.31 µM
